Experimental findings from ChEMBL document CHEMBL1152560, “Substituted 2-arylbenzothiazoles as kinase inhibitors: hit-to-lead optimization” (Bioorg Med Chem, 2009) are described below.

Each structure is given as a SMILES string.

The target of assay [1] is Activated CDC42 kinase 1 (Homo sapiens) (UniProt Q07912). Briefly: Residual activity of ACK1 at 1 uM by microplate scintillation counting.
In assay [2] the target is Maternal embryonic leucine zipper kinase (Homo sapiens) (UniProt Q14680). Briefly: Residual activity of MELK at 10 uM by microplate scintillation counting.
The target in assay [3] is T1, Tyrosine-protein kinase ITK/TSK (Homo sapiens) (UniProt Q08881).
T1 sequence (whole entry): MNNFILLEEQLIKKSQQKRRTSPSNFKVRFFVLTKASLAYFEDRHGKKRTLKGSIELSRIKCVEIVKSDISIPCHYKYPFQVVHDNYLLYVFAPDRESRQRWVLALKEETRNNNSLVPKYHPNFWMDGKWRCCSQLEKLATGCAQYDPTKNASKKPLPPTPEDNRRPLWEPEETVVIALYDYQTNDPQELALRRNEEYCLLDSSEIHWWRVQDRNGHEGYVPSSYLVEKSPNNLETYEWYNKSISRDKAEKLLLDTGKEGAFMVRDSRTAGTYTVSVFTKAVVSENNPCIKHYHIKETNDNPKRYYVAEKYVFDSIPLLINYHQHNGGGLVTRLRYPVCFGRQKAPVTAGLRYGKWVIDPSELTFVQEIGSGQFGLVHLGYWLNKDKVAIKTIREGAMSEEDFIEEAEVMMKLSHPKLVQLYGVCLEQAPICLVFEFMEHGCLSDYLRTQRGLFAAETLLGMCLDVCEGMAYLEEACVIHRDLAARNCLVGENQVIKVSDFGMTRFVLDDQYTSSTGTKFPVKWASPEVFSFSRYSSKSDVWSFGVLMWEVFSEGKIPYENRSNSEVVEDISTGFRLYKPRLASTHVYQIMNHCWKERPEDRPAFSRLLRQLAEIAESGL
As to the kind of experiment: Residual activity of ITK at 10 uM by microplate scintillation counting.

Assay [4] concerns the target T2, Aurora kinase C (Homo sapiens) (UniProt Q9UQB9).
T2 sequence (whole entry): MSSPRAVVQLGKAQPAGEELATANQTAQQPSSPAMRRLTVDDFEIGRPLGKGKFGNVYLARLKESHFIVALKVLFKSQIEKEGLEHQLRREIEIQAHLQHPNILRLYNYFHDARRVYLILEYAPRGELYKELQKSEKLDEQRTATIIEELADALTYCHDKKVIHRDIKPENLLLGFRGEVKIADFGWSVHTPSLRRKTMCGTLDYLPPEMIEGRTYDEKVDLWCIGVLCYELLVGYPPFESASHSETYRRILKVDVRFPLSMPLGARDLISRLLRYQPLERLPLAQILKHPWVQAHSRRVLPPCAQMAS
Briefly: Residual activity of Aurora-C at 10 uM by microplate scintillation counting.

Assay [5] deals with T3, Lymphokine-activated killer T-cell-originated protein kinase (Homo sapiens) (UniProt Q96KB5).
T3 sequence (whole entry): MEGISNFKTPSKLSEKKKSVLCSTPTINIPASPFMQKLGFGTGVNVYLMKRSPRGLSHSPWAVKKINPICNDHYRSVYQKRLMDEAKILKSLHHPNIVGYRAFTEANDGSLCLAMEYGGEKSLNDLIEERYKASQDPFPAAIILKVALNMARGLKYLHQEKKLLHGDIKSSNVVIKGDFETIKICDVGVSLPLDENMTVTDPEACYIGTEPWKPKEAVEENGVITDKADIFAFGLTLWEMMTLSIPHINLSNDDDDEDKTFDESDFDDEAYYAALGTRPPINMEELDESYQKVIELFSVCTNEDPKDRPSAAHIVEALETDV
Briefly: Residual activity of PBK at 0.1 uM by microplate scintillation counting.

The nature of assay [6]: Residual activity of PKA at 1 uM by microplate scintillation counting.
Assay [7] concerns the target Tyrosine-protein kinase SYK (Homo sapiens) (UniProt P43405). Briefly: Residual activity of SYK at 1 uM by microplate scintillation counting.
Assay [8] addresses Serine/threonine-protein kinase PAK 2 (Homo sapiens) (UniProt Q13177). Briefly: Residual activity of PAK2 at 10 uM by microplate scintillation counting.
The target in assay [9] is T4, Serine/threonine-protein kinase D1 (Homo sapiens) (UniProt Q15139).
T4 sequence (whole entry): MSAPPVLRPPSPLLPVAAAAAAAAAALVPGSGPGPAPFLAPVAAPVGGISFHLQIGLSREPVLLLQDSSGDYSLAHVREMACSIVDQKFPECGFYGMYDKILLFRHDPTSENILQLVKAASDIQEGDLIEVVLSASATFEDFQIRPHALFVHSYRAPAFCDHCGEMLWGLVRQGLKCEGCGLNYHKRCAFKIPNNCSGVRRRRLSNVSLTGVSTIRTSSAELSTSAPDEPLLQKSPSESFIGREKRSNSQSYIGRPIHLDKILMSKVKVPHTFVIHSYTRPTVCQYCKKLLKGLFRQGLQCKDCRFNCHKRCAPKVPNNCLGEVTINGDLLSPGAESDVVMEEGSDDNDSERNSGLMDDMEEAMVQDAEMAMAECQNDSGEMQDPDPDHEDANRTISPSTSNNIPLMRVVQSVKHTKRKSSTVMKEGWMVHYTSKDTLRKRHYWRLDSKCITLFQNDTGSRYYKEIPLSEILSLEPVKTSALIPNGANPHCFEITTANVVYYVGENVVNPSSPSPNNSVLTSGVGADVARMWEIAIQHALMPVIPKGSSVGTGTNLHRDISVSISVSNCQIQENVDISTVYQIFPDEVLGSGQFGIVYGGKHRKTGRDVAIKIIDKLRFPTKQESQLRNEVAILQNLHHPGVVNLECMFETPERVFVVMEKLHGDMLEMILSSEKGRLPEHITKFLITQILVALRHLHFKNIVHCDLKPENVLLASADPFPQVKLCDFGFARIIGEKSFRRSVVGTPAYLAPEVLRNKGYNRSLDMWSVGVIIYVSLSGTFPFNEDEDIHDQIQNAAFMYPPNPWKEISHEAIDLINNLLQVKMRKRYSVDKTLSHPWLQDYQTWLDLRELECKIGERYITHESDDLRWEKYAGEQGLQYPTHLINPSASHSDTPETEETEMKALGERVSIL
Briefly: Residual activity of PKCmu at 0.1 uM by microplate scintillation counting.

The target in assay [10] is Serine/threonine-protein kinase N1 (Homo sapiens) (UniProt Q16512). As to the kind of experiment: Residual activity of PRK1 at 1 uM by microplate scintillation counting.
For assay [11], the target named is Cyclin-dependent kinase 2/cyclin E1 (Homo sapiens) (UniProt P24864+P24941). As to the kind of experiment: Residual activity of CDK2/Cyclin E at 10 uM by microplate scintillation counting. It is filed as protein-complex assay.

Sequence of Serine/threonine-protein kinase PAK 2 (Homo sapiens) (Q13177 whole entry): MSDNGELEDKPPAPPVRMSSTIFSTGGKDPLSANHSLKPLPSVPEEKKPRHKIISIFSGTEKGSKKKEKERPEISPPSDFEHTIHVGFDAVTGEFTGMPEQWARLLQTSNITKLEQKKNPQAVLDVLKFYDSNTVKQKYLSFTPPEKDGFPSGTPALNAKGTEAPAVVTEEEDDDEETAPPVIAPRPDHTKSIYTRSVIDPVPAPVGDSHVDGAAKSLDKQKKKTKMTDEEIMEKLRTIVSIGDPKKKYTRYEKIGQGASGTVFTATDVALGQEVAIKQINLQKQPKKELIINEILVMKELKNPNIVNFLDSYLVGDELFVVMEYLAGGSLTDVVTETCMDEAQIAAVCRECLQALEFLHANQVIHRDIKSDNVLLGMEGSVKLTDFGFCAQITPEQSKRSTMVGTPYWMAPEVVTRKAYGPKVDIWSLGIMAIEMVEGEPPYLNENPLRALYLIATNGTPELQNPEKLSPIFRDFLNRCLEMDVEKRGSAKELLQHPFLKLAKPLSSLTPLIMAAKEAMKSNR
Sequence of Serine/threonine-protein kinase N1 (Homo sapiens) (Q16512 2-942 limits assumed): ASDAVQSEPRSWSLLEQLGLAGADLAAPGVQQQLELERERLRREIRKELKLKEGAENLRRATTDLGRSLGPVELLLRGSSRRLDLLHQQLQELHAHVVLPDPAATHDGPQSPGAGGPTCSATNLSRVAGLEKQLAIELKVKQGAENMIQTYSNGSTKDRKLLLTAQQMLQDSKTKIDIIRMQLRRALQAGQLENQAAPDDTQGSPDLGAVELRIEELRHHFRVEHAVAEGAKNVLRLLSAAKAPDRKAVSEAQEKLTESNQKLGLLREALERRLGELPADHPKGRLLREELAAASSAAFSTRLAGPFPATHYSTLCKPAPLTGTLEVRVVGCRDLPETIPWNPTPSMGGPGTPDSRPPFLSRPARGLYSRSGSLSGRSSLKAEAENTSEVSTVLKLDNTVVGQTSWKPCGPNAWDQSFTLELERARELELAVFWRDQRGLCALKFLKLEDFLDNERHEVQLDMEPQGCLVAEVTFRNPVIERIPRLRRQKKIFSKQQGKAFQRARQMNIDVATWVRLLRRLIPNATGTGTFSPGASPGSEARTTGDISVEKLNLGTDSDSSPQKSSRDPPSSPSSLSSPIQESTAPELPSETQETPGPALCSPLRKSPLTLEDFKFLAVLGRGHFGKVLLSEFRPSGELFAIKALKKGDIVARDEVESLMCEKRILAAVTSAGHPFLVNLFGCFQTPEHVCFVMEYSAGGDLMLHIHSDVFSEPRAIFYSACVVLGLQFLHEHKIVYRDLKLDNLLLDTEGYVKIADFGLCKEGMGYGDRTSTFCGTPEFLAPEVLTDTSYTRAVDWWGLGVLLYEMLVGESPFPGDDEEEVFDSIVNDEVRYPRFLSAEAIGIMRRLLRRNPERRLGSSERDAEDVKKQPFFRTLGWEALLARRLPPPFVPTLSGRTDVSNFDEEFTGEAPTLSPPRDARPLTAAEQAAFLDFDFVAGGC
Sequence of Maternal embryonic leucine zipper kinase (Homo sapiens) (Q14680 whole entry, looked up): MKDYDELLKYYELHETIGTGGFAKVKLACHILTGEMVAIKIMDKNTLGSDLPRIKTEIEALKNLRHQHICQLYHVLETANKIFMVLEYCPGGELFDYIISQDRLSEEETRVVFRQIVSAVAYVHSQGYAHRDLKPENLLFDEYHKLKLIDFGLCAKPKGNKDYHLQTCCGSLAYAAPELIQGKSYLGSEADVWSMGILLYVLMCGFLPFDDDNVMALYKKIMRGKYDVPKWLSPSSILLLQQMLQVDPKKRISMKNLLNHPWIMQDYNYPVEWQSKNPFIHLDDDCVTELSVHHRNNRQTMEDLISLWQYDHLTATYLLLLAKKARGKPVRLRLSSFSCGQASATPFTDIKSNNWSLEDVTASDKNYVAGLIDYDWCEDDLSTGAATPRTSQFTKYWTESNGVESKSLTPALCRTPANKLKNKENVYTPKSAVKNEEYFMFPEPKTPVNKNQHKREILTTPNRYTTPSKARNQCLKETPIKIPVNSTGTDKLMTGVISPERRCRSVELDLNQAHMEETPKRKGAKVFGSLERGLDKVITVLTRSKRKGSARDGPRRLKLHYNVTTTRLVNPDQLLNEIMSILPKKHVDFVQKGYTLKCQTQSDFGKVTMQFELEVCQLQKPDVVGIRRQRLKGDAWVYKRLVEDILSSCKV
Sequence of Activated CDC42 kinase 1 (Homo sapiens) (Q07912 whole entry, looked up): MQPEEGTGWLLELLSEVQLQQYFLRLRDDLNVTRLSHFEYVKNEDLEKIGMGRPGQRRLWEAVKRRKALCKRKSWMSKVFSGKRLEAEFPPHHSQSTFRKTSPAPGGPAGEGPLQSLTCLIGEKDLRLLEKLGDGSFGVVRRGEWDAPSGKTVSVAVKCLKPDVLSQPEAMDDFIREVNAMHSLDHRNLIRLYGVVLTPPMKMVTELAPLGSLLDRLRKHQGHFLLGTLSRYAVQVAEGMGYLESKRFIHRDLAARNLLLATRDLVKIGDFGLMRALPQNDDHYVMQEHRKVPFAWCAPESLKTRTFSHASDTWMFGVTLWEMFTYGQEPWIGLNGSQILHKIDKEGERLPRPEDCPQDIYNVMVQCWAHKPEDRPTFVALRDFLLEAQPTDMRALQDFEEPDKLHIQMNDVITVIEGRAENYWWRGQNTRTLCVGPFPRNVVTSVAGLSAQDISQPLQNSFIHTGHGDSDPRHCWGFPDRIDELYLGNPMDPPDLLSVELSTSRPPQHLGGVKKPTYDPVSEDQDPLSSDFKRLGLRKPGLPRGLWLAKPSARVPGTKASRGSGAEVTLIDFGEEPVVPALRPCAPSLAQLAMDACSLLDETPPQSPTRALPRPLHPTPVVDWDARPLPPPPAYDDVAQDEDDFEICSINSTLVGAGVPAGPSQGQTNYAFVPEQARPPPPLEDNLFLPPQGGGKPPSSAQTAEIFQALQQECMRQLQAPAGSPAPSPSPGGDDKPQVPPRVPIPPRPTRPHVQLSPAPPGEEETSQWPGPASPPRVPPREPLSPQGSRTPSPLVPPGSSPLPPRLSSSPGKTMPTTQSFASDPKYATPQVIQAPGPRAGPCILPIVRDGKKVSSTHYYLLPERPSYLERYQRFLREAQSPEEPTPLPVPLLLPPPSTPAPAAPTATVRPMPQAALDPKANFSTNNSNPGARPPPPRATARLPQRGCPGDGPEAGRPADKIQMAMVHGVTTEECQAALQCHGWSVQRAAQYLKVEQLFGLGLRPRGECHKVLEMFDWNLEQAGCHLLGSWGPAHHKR

For `COc1cc2c(Oc3ccc(-c4nc5ccccc5s4)cc3F)ncnc2cc1OCCCN1CCN(C)CC1`, the residual activity in assay [1] stood at 90%; in assay [2], 77%; in assay [3], 63%; in assay [4], 2%; in assay [5] it was 91%; in assay [6], 103%. Moreover, the residual activity in assay [7] is 102%; in [8], 48%; in assay [9] it was 81%; in [10], 99%; in assay [11], 194%.

For `COc1cc2c(Oc3ccc(-c4nc5ccccc5s4)cc3)ncnc2cc1OCCCN1CCN(C)CC1`, the residual activity in assay [1] is 76%; in assay [2] it was 98%; in assay [3], 99%; in [4], 0%; in assay [5] it was 96%; in [6], 106%. In addition, the residual activity in [7] was found to be 95%; in assay [8], 54%; in assay [9], 91%; in assay [10] it was 98%; in assay [11], 186%.

Regarding `COc1cc2c(Oc3ccc(-c4nc5ccccc5s4)cc3)ncnc2cc1OCCCN1CCCC1`, the residual activity in [1] amounted to 106%; in assay [2], 85%; in [3], 117%; in [4], 1%; in assay [5], 110%; in assay [6], 96%. Moreover, the residual activity in [7] was determined as 97%; in [8], 49%; in [9], 102%; in [10], 97%; in [11], 116%.
